Results from US20250057997A1, “CONJUGATES COMPRISING COVALENT BINDERS FOR TARGETING INTRACELLULAR PROTEINS” (RayzeBio, Inc., priority 2021, published 2025).

molecular target: T1, mutant EGFR (T790M, L858R) (Homo sapiens, UniProt P00533, L858R/T790M); assay: In vitro kinase assay (phage/DNA-tagged kinase competition binding, qPCR readout), mutant EGFR; conditions: EGFR construct R669 to V1011; 11-point 3-fold dilution series; 1 hour at room temperature
T1 construct: The EGFR constructs span amino acids R669 to V1011 of the EGFR protein; made in house; host or cells: E. coli derived from BL21 (T7 phage) for most assays; remaining kinases in HEK-293 cells
Experimental: For most assays, kinase-tagged T7 phage strains were prepared in an E. coli host derived from the BL21 strain. For the EGFR assays, wild-type EGFR, or mutant EGFR (T790M, L858R) were utilized. The EGFR constructs span amino acids R669 to V1011 of the EGFR protein. E. coli were grown to log-phase and infected with T7 phage and incubated with shaking at 32° C. until lysis. The lysates were centrifuged and filtered to remove cell debris. The remaining kinases were produced in HEK-293 cells and subsequently tagged with DNA for qPCR detection. Streptavidin-coated magnetic beads were treated with biotinylated small molecule ligands for 30 minutes at room temperature to generate affinity resins for kinase assays. The liganded beads were blocked with excess biotin and washed with blocking buffer (SeaBlock (Pierce), 1% BSA, 0.05% Tween 20, 1 mM DTT) to remove unbound ligand and to reduce non-specific binding. Binding reactions were assembled by combining kinases, liganded affinity beads, and test compounds in 1× binding buffer (20% SeaBlock, 0.17×PBS, 0.05% Tween 20, 6 mM DTT). Test compounds were prepared as 111× stocks in 100% DMSO. Kds were determined using an 11-point 3-fold compound dilution series with three DMSO control points. All compounds for Kd measurements are distributed by acoustic transfer (non-contact dispensing) in 100% DMSO. The compounds were then diluted directly into the assays such that the final concentration of DMSO was 0.9%. All reactions performed in polypropylene 384-well plate. Each was a final volume of 0.02 ml. The assay plates were incubated at room temperature with shaking for 1 hour and the affinity beads were washed with wash buffer (1×PBS, 0.05% Tween 20). The beads were then re-suspended in elution buffer (1×PBS, 0.05% Tween 20, 0.5 μM nonbiotinylated affinity ligand) and incubated at room temperature with shaking for 30 minutes. The kinase concentration in the eluates was measured by qPCR.

T1 sequence (P00533 669-1011 T790M/L858R): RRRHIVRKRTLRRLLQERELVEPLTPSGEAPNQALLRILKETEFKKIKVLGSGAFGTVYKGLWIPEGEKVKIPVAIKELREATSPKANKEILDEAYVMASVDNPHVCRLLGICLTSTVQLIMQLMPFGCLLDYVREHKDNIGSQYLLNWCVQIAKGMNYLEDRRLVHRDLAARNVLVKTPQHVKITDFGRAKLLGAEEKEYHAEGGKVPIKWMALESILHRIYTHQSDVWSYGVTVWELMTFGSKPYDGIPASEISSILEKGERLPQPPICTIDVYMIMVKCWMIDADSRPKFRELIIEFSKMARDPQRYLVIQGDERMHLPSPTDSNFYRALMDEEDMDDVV

| Compound | Kd [nM] |
| --- | --- |
| C=CC(=O)N[C@@H]1CN(c2nc(Nc3cn(CCCCCNC(=O)CN4CCN(CC(=O)O)CCN(CC(=O)O)CCN(CC(=O)O)CC4)nc3OC)c3ncn(C)c3n2)C[C@H]1F [Compound 002, 2-[4,7-bis(carboxymethyl)-10-[2-[5-[4-[[2-[(3R,4R)-3-fluoro-4-(prop-2-enoylamino)pyrrolidin-1-yl]-9-methyl-purin-6-yl]amino]-3-methoxy-pyrazol-1-yl]pentylamino]-2-oxo-ethyl]-1,4,7,10-tetrazacyclododec-1-yl]acetic acid] | < 1 |

same assay, conditions: ratio of Kd EGFR (WT) to Kd EGFR (L858R, T790M) double mutant

| Compound | Binding Affinity ratio of WT/DM |
| --- | --- |
| C=CC(=O)N[C@@H]1CN(c2nc(Nc3cn(CCCCCNC(=O)CN4CCN(CC(=O)O)CCN(CC(=O)O)CCN(CC(=O)O)CC4)nc3OC)c3ncn(C)c3n2)C[C@H]1F [Compound 002, 2-[4,7-bis(carboxymethyl)-10-[2-[5-[4-[[2-[(3R,4R)-3-fluoro-4-(prop-2-enoylamino)pyrrolidin-1-yl]-9-methyl-purin-6-yl]amino]-3-methoxy-pyrazol-1-yl]pentylamino]-2-oxo-ethyl]-1,4,7,10-tetrazacyclododec-1-yl]acetic acid] | A (4 < A ≤ 25) |
| C=CC(=O)N[C@@H]1CN(c2nc(Nc3cn(CCCCCNC(=O)CN4CCN5CCN6CCN(CC4)CC(=O)[O][Lu]([O]C(=O)C5)[O]C(=O)C6)nc3CC)c3ncn(C(C)(C)C)c3n2)C[C@H]1F [Compound 005-Lu] | C (100 < C ≤ 1000) |
| C=CC(=O)N1C[C@H](COc2nc(Nc3cnn(CCCCCNC(=O)CN4CCN5CCN6CCN(CC4)CC(=O)[O][Lu]([O]C(=O)C5)[O]C(=O)C6)c3)nc3[nH]cc(Cl)c23)[C@@H](OC)C1 [Compound 007-Lu, N-[5-[4-[[5-chloro-4-[[(3R,4R)-4-methoxy-1-prop-2-enoyl-pyrrolidin-3-yl]methoxy]-7H-pyrrolo[2,3-d]pyrimidin-2-yl]amino]pyrazol-1-yl]pentyl]-2-(3,16,19-trioxo-2,17,18-trioxa-5,8,11,14-tetraza-1λ3-lutetatricyclo[9.6.3.25,14]docosan-8-yl) acetamide] | C (100 < C ≤ 1000) |
| C=CC(=O)N[C@@H]1CN(c2nc(Nc3cn(CCCNC(=O)CN4CCN5CCN6CCN(CC4)CC(=O)[O][Lu]([O]C(=O)C5)[O]C(=O)C6)nc3OC)c3ncn(C)c3n2)C[C@H]1F [Compound 001-Lu] | A (4 < A ≤ 25) |
| C=CC(=O)N[C@@H]1CN(c2nc(Nc3cn(CCCCCNC(=O)CN4CCN5CCN6CCN(CC4)CC(=O)[O][Lu]([O]C(=O)C5)[O]C(=O)C6)nc3OC)c3ncn(C(C)(C)C)c3n2)C[C@H]1F [Compound 004-Lu] | B (25 < B ≤ 100) |
